From patent publication US20060258631A1, “Methods of using fatty-acid esters of estrogens and serotonin reuptake inhibiting compounds for reducing the body weight of a mammal and compositions containing the same” (Oleoyl-Estrone Development SL, priority 2004, published 2006)
Several values for one entry are separate records, joined by “and”; a condition that tells them apart may be missing. Equal values may be shown once. Entries after “also recorded” stand apart in the source; their conditions may differ.

Assays:
[1] = Body weight and lipid change of overweight rats treated 10 days by daily gavage; format: in vivo; details: overweight male Wistar rats, 10-day daily gavage; oleoyl-estrone 10 micromol/kg, dexfenfluramine 3 mg/kg, sibutramine 5 mg/kg
From the text: (§1) Forty-five day-old male Wistar rats were used. The rats were kept in collective cages in a light cycle, temperature, and humidity-controlled environment. They were fed tap water and a self-selected cafeteria diet (containing an excess of tasty, energy-dense foods, as well as standard chow) for 45 additional days. Then they were subjected to a 5-day diet adaptation period, in which they had rat chow as the sole food available. At this point, the rats weighed 350-370 g and had plenty of body fat. Maintaining the availability of rat chow (daily consumption by the group was recorded) and tap water, body weight was recorded daily. The animals were given a daily gavage of either 0.2 mL of sunflower oil or the same vehicle containing oleoyl-estrone.
(§2) Six groups of animals were used: • a) controls, receiving a daily gavage of 0.2 mL of sunflower oil; • b) oleoyl-estrone, receiving the same daily gavage of 0.2 mL of sunflower oil, but containing oleoyl-estrone, to a a daily dose of 10 micromol per kg of body weight; • c) dexfenfluramine: receiving the same daily gavage of 0.2 mL of sunflower oil, and a second gavage of 0.2 mL of dexfenfluramine in water, to a a daily dose of 3 mg per kg of body weight; • d) dexfenfluramine plus oleoyl-estrone: receiving both gavages, 0.2 mL of oil and oleoyl-estrone (to a daily dose of 10 micromol per kg of body weight) and 0.2 mL of water and dexfenfluramine, to a daily dose of 3 mg per kg of body weight; • e) sibutramine: receiving the same daily gavage of 0.2 mL of sunflower oil, and a second gavage of 0.2 mL of sibutramine in water, to a a daily dose of 5 mg per kg of body weight; • f) sibutramine plus oleoyl-estrone: receiving both gavages, 0.2 mL of oil and oleoyl-estrone (to a daily dose of 10 micromol per kg of body weight) and 0.2 mL of water and sibutramine, to a daily dose of 5 mg per kg of body weight.
(§3) The treatment was maintained up to 10 days, when the animals were killed by decapitation, and their blood and carcass were used for analyses. Plasma was separated from the blood. The plasma was preserved frozen until its utilization for the estimation of glucose, cholesterol, triacylglycerol, free fatty acids, and insulin levels using standard methods, as well as for the estimation of alanine- and aspartate-transaminase activities.
The rat corpses, partially exsanguinated were dissected. The stomach and intestines were cleaned of their contents. The remaining carcass was sealed into polyethylene bags, autoclaved and blended to a fine paste. This paste was analysed for lipid content by extraction using trichloromethane/methanol and corrected by its water content. Lipid content in the paste was referred to whole in vivo body weight for comparison.
(§4) Samples of the rat paste were dried and used for the estimation of their caloric content using a bomb calorimeter. The initial values for lipid content were calculated from the corresponding in vivo body weights at the beginning of the experiment and applying to all the animals the mean percentage of lipid content found in the control (vehicle only) group at the end of the experiment. This same procedure was used to determine the overall energy content of the carcasses by using the experimentally found energy content of the rats in the control group. Likewise, the energy content of the pellet diet was also measured and used to estimate the energy intake of the animals.

[2] = Energy balance (carcass energy, food/energy intake, energy expenditure) of overweight rats treated 10 days; format: in vivo, male Wistar rats; details: for carcass energy content (ranking among groups): end of 10-day treatment, bomb calorimeter; for decrease in food consumption / loss of energy from the internal stores / net contribution of internal stores to energy expenditure: overweight male Wistar rats, 10-day daily gavage, same doses
From the text: as §1, §2, §3, §4
Energy expenditure (Ee) was estimated as the difference between energy intake (Ei) and accrual (Ea), since: Ei=Ee±Ea.

[3] = Plasma composition of rats after 10 days of treatment; format: in vivo, male Wistar rats; details: after 10-day treatment, compared with other groups
From the text: as §1, with “oleoyl-estrone. […]” for “oleoyl-estrone.”

| SMILES | loss of lipid (body lipid) [1] [%] | carcass energy content (ranking among groups) [2] | decrease in food consumption [2] [%] | loss of energy from the internal stores [2] [kJ] | plasma triacylglycerol levels [3] | loss of body weight [1] | net contribution of internal stores to energy expenditure [2] [%] |
| --- | --- | --- | --- | --- | --- | --- | --- |
| CCCCCCCC/C=C\CCCCCCCC(=O)Oc1ccc2c(c1)CC[C@@H]1[C@@H]2CC[C@]2(C)C(=O)CC[C@@H]12 [oleoyl-estrone, [3(Z)]-3-[(1-oxo-9-octadecenyl)oxy]-estra-1,3,5(10)-trien-17-one] | 13 | smaller | 32 | 357 | lower; also recorded: decreased | – | – |
| CCN[C@@H](C)Cc1cccc(C(F)(F)F)c1 [dexfenfluramine] | ~16 | – | 23 | 546 | – | 3% and 2.6% | ~20 |
| CC(C)CC(N(C)C)C1(c2ccc(Cl)cc2)CCC1 (stereo not shown) [sibutramine] | 15 | smaller | 26 | 403 | – | 4% and 3.8% | ~20 |
